Experimental data published in patent US9205174B2, “Bone graft substitute in the form of an implantable three-dimensional scaffold and method of manufacturing same” (Mathys AG Bettlach, priority 2010, dated 2015).

Assays:
[1] = for expected (added) amount beyond which additional salt does not load the block / loading efficiency drastically decreases: 0.50 g/mL solution, 14×14 mm β-TCP cylinder, dried at 95° C.
Method: A 2^2 factorial design of experiments with three repeats was performed with the following factors: Factor A: CaCl2 concentration (0.25 or 0.50 g/mL); Factor B: Liquid amount (3.5 or 7.0 mL). Each of the 14×14 mm cylinders was placed standing in a snap cap flask.
The solution was then slowly added to allow impregnation through capillarity. The cylinder top was always protruding out of the solution. The samples were then inserted into the drying cupboard tempered at 60° C. The ventilation of the drying cupboard was set at its maximum.
The weight of the flask+solution+samples was measured at regular interval to determine the point at which constant weight was reached. […] Therefore, these 9 samples were removed from the flask and the weight was determined without flask. The 3 samples made with 7 mL 0.50 g/mL solution were kept for a longer time. The drying temperature was increased to 80° C.
Each of the 14×14 mm cylinders was placed standing in a snap cap flask. The solution was then slowly injected at the bottom of the snap-cap flask to allow impregnation through capillarity. 6 different volumes were injected: 1.8, 2.7, 3.6, 4.5, 5.6 and 6.3 mL.
Two cylinders were prepared for each solution volume. The cylinder top was always protruding out of the solution. The samples were then inserted into the drying cupboard tempered at 95° C. The ventilation of the drying cupboard was set at its maximum.
The weight of the flask+solution+samples was measured at regular interval to determine the point at which constant weight was reached. The sample weight was determined to assess how much di-potassium hydrogen phosphate was present in the block pores.
Each of the 14×14 mm cylinders was placed standing in a snap cap flask. The solution (kept at 95° C.) was then slowly injected at the bottom of the snap-cap flask to allow impregnation through capillarity. […]
The weight of the flask+solution+samples was measured at regular interval to determine the point at which constant weight was reached. […] The sample weight was determined to assess how much di-potassium hydrogen phosphate was present in the block pores.

[2] = Release test of loaded β-TCP blocks in 1 L deionized water, weight loss after drying; assay type: physicochemical; details: for dissolution rate DRD relative to dissolution rate DRS of β-TCP: from weight losses; for release rate (in words): from loaded β-TCP blocks in 1 L deionized water; for amount released: 50 RPM
Method: (§1) Each sample was then placed into a small porous cage produced by joining together two BD Falcon filters (Mesh size: 70 micrometers). The cage was lowered into a 1 L deionized water. Stirring was performed with a large magnetic bar (6 cm in length) at 50 RPM. The samples were removed from the solution after 1 h or 3 h (1 sample per time and per composition). The samples were then dried at 95° C. and weighed to determine the amount of Na2HPO4.2H2O released during the test.
as §1, with “after 10 min,” for “after”, “or 6” for “or 3”, “(1 samples” for “(1 sample”, “of CaCl2” for “of Na2HPO4.2H2O”, “the incubation.” for “the test.”

Structure (SMILES) | expected (added) amount beyond which additional salt does not load the block / loading efficiency drastically decreases [1] | dissolution rate DRD relative to dissolution rate DRS of β-TCP ([2]; deionized water) | release rate (in words) [2] | amount released ([2]; Example 4, after 1 h, deionized water) | state of samples after release ([2]; Example 4, at 6 h, deionized water) | amount released ([2]; Example 4, within 10 minutes, deionized water) | loading efficiency ([1]; Example 1, porous β-TCP blocks, 7 mL of 0.25 g/mL or 3.5 mL of 0.50 g/mL solution, dried at 60° C.) [%]
O=P([O-])([O-])O.[K+].[K+] [K2HPO4, di-potassium hydrogen phosphate] | ≈ 2.5 g | – | – | – | – | – | –
O=P([O-])([O-])O.[Na+].[Na+] [Na2HPO4.2H2O, di-sodium hydrogen phosphate] | ~1.35 g | two order of magnitude larger | relatively slowly | – | – | – | –
[Ca+2].[Cl-].[Cl-] [calcium chloride] | – | more than 100 times | very fast | 80-85% | free of calcium chloride | roughly 50% | ~84
